What all share (type): functional
Experiment [1] has as its system Klebsiella pneumoniae. Briefly: Ability to inhibit growth of Klebsiella pneumoniae MTCC 109 was determined.
Experiment [2] deals with Pseudomonas aeruginosa. Description: Ability to inhibit growth of Pseudomonas aeruginosa MTCC 1034 was determined.
Experiment [3] has as its system Enterococcus faecalis. Briefly: Ability to inhibit growth of Enterococcus faecalis MTCC 439 was determined.
The subject of experiment [4] is Bacillus subtilis. Briefly: Ability to inhibit growth of Bacillus subtilis MTCC 121 was determined.
Experiment [5] has as its system Shigella sonnei. Briefly: Ability to inhibit growth of Shigella sonnei MTCC 2957 was determined.
The subject of experiment [6] is Bacillus cereus. Description: Ability to inhibit growth of Bacillus cereus MTCC 1272 was determined.
Experiment [7] relates to Staphylococcus aureus. Description: Ability to inhibit growth of Staphylococcus aureus MTCC1430 was determined.
Experiment [8] concerns Proteus vulgaris. Briefly: Ability to inhibit growth of Proteus vulgaris MTCC744 was determined.
The subject of experiment [9] is Escherichia coli. Description: Ability to inhibit growth of Escherichia coli MTCC 42 was determined.

With `Cc1ccc2nc(N3CCOCC3)nc(-c3ccccc3)c2c1`, the “Growth Inhibition” value is on record as 19 mm in [1]; 19 mm in experiment [2]; 16 mm in [3]; 16 mm in [4]; 20 mm in experiment [5]; 15 mm in experiment [6]. In addition, the entries for the “Growth Inhibition” value in experiment [7], in experiment [8] and in [9] were 12 mm, 18 mm and 21 mm, respectively.

As to `COc1ccc(-c2nc(N3CCCCC3)nc3ccc(C)cc23)cc1`, the “Growth Inhibition” value in experiment [1] worked out at 20 mm; in [2], 15 mm; in [3], 16 mm; in experiment [4] it was 21 mm; in experiment [5], 21 mm; in [6], 16 mm. The “Growth Inhibition” value is listed as 19 mm in [7], 18 mm in experiment [8] and 19 mm in experiment [9].

Consider `Cc1ccc2nc(-c3ccccc3)nc(-c3ccc(N(C)C)cc3)c2c1`, for which the “Growth Inhibition” value came to 19 mm in [1]; 18 mm in experiment [2]; 12 mm in [3]; 15 mm in experiment [4]; 16 mm in experiment [5]; 14 mm in experiment [6]. Besides, the “Growth Inhibition” value in experiment [7] is on record as 11 mm; in [8], 17 mm; in experiment [9], 18 mm.

On to `Cc1ccc2nc(N3CCOCC3)nc(-c3ccc(N(C)C)cc3)c2c1`, for which the “Growth Inhibition” value is recorded as 20 mm in experiment [1]; 16 mm in [2]; 17 mm in experiment [3]; 18 mm in experiment [4]; 19 mm in [5]; 19 mm in [6]. Besides, the entries for the “Growth Inhibition” value in experiment [7], in experiment [8] and in experiment [9] were 22 mm, 18 mm and 20 mm, respectively.

For `COc1ccc(-c2nc(-c3ccccc3)nc3ccc(C)cc23)cc1`, the “Growth Inhibition” value in experiment [1] came to 17 mm; in [2], 16 mm; in [3], 12 mm; in experiment [4], 12 mm; in experiment [5], 15 mm; in experiment [6] it was 13 mm. For the same molecule, the figures for the “Growth Inhibition” value in experiment [7], in experiment [8] and in experiment [9] were 0 mm, 15 mm and 16 mm, respectively.

Regarding `O=C(O)c1cn(C2CC2)c2cc(N3CCNCC3)c(F)cc2c1=O` [CIPROFLOXACIN], the “Growth Inhibition” value in experiment [1] turned out to be 18 mm; in experiment [2], 18 mm; in experiment [3] it was 16 mm; in experiment [4], 22 mm; in experiment [5], 21 mm; in [6], 17 mm. The entries for the “Growth Inhibition” value in [7], in experiment [8] and in experiment [9] were 21 mm, 19 mm and 22 mm, respectively.

(Values after ChEMBL document CHEMBL1137910, “Synthesis and biological activity of novel antibacterial quinazolines” (2004).)
